{"source": "PubChem BioAssay (NCI)", "assay_in_all_cases": "DTP human tumour cell line panel, 48 h", "key": {"786-0 renal": {"system": "786-0 renal"}, "A549 NSCLC": {"system": "A549 NSCLC"}, "COLO 205 colon": {"system": "COLO 205 colon"}, "HL-60(TB) leukemia": {"system": "HL-60(TB) leukemia"}, "HOP-62 NSCLC": {"system": "HOP-62 NSCLC"}, "IGROV1 ovarian": {"system": "IGROV1 ovarian"}, "M14 melanoma": {"system": "M14 melanoma"}, "RXF 393 renal": {"system": "RXF 393 renal"}, "UO-31 renal": {"system": "UO-31 renal"}, "OVCAR-5 ovarian": {"system": "OVCAR-5 ovarian"}}, "note": "Values joined by “and” are separate entries in the source; they are usually repeats but may differ in a detail not shown here. Equal entries are not always repeated.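 Grown in 96-well plates, cells were treated for 48 hours with each compound at five concentrations. Insufficient inhibition: endpoint recorded as highest concentration tested. GI50: concentration for 50% inhibition of growth. TGI: concentration producing complete growth inhibition.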", "data": [{"smiles": "C=C(C)C1C/C=C(/C)CCCC2(CCC3=C(CC(C(=C)C)C/C=C(/C)CCC3)O2)C(=O)C1", "note": "(stereo not given)", "values": [{"measurement": "TGI", "setting": "786-0 renal", "value": "> 100", "unit": "µM"}, {"measurement": "TGI", "setting": "A549 NSCLC", "value": "> 100", "unit": "µM"}, {"measurement": "TGI", "setting": "COLO 205 colon", "value": "> 100", "unit": "µM"}, {"measurement": "TGI", "setting": "HL-60(TB) leukemia", "value": "> 100", "unit": "µM"}, {"measurement": "TGI", "setting": "HOP-62 NSCLC", "value": "> 100", "unit": "µM"}, {"measurement": "TGI", "setting": "IGROV1 ovarian", "value": "> 100", "unit": "µM"}, {"measurement": "TGI", "setting": "M14 melanoma", "value": "> 100", "unit": "µM"}, {"measurement": "TGI", "setting": "RXF 393 renal", "value": "> 100", "unit": "µM"}, {"measurement": "TGI", "setting": "UO-31 renal", "value": "> 100", "unit": "µM"}]}, {"smiles": "N#CNC(N)=Nc1ccc(Cl)cc1", "values": [{"measurement": "TGI", "setting": "786-0 renal", "value": "> 100", "unit": "µM"}, {"measurement": "TGI", "setting": "A549 NSCLC", "value": "> 100", "unit": "µM"}, {"measurement": "TGI", "setting": "COLO 205 colon", "value": "> 100", "unit": "µM"}, {"measurement": "TGI", "setting": "HOP-62 NSCLC", "value": "> 100", "unit": "µM"}, {"measurement": "TGI", "setting": "IGROV1 ovarian", "value": "> 100", "unit": "µM"}, {"measurement": "TGI", "setting": "M14 melanoma", "value": "> 100", "unit": "µM"}, {"measurement": "TGI", "setting": "OVCAR-5 ovarian", "value": "> 100", "unit": "µM"}, {"measurement": "TGI", "setting": "RXF 393 renal", "value": "> 100", "unit": "µM"}, {"measurement": "TGI", "setting": "UO-31 renal", "value": "> 100", "unit": "µM"}]}, {"smiles": "Cc1ccc(-c2nc3nc(-c4ccc(F)cc4)nc(N4CCCNCC4)c3o2)cc1", "values": [{"measurement": "GI50", "setting": "786-0 renal", "value": 1.83, "unit": "µM"}, {"measurement": "TGI", "setting": "786-0 renal", "value": 3.56, "unit": "µM"}, {"measurement": "GI50", "setting": "COLO 205 colon", "value": 2.03, "unit": "µM"}, {"measurement": "TGI", "setting": "COLO 205 colon", "value": 4.07, "unit": "µM"}, {"measurement": "GI50", "setting": "HL-60(TB) leukemia", "value": 0.211, "unit": "µM"}, {"measurement": "TGI", "setting": "HL-60(TB) leukemia", "value": 0.46, "unit": "µM"}, {"measurement": "GI50", "setting": "HOP-62 NSCLC", "value": 1.74, "unit": "µM"}, {"measurement": "TGI", "setting": "HOP-62 NSCLC", "value": 3.51, "unit": "µM"}, {"measurement": "GI50", "setting": "IGROV1 ovarian", "value": 1.59, "unit": "µM"}, {"measurement": "TGI", "setting": "IGROV1 ovarian", "value": 3.01, "unit": "µM"}, {"measurement": "GI50", "setting": "M14 melanoma", "value": 1.86, "unit": "µM"}, {"measurement": "TGI", "setting": "M14 melanoma", "value": 3.56, "unit": "µM"}, {"measurement": "GI50", "setting": "OVCAR-5 ovarian", "value": 1.65, "unit": "µM"}, {"measurement": "TGI", "setting": "OVCAR-5 ovarian", "value": 3, "unit": "µM"}, {"measurement": "GI50", "setting": "RXF 393 renal", "value": 1.59, "unit": "µM"}, {"measurement": "TGI", "setting": "RXF 393 renal", "value": 3.11, "unit": "µM"}, {"measurement": "GI50", "setting": "UO-31 renal", "value": 1.44, "unit": "µM"}, {"measurement": "TGI", "setting": "UO-31 renal", "value": 2.79, "unit": "µM"}]}, {"smiles": "Cc1ccccc1NC(=O)C1C(=O)N(c2ccccc2C)C(=O)/C1=N\\NC(N)=S", "note": "(stereo not given)", "values": [{"measurement": "TGI", "setting": "786-0 renal", "value": "> 100", "unit": "µM"}, {"measurement": "TGI", "setting": "A549 NSCLC", "value": "> 100", "unit": "µM"}, {"measurement": "TGI", "setting": "HL-60(TB) leukemia", "value": "> 100", "unit": "µM"}, {"measurement": "TGI", "setting": "IGROV1 ovarian", "value": "> 100", "unit": "µM"}, {"measurement": "TGI", "setting": "M14 melanoma", "value": "> 100", "unit": "µM"}, {"measurement": "TGI", "setting": "UO-31 renal", "value": "> 100", "unit": "µM"}]}, {"smiles": "CCC1=CC2CN(C1)Cc1c([nH]c3ccccc13)[C@@](C(=O)OC)(c1cc3c(cc1OC)N(C)[C@H]1[C@@](O)(C(=O)OC)[C@H](OC(C)=O)[C@]4(CC)C=CCN5CC[C@]31[C@@H]54)C2", "note": "(stereo not given in full)", "values": [{"measurement": "GI50", "setting": "786-0 renal", "value": "0.0514 µM and 0.0773 µM"}, {"measurement": "TGI", "setting": "786-0 renal", "value": "16.7 µM and > 100 µM"}, {"measurement": "GI50", "setting": "A549 NSCLC", "value": "0.0114 µM and 0.0208 µM"}, {"measurement": "TGI", "setting": "A549 NSCLC", "value": "50 µM and > 100 µM"}, {"measurement": "GI50", "setting": "COLO 205 colon", "value": 0.00763, "unit": "µM"}, {"measurement": "GI50", "setting": "HL-60(TB) leukemia", "value": "< 0.005", "unit": "µM"}, {"measurement": "TGI", "setting": "HL-60(TB) leukemia", "value": "0.00984 µM and 0.0285 µM"}, {"measurement": "GI50", "setting": "HOP-62 NSCLC", "value": 0.0135, "unit": "µM"}, {"measurement": "TGI", "setting": "HOP-62 NSCLC", "value": 43.8, "unit": "µM"}, {"measurement": "GI50", "setting": "M14 melanoma", "value": "0.00953 µM and 0.0245 µM"}, {"measurement": "TGI", "setting": "M14 melanoma", "value": "5.82 µM and 0.913 µM"}, {"measurement": "GI50", "setting": "OVCAR-5 ovarian", "value": "0.0325 µM and 0.0785 µM"}, {"measurement": "TGI", "setting": "OVCAR-5 ovarian", "value": "50 µM and > 100 µM"}, {"measurement": "GI50", "setting": "UO-31 renal", "value": "5.45 µM and 1.06 µM"}, {"measurement": "TGI", "setting": "UO-31 renal", "value": "26.6 µM and 76.9 µM"}]}, {"smiles": "COc1cnc2c(c1)C(=O)c1c-2n(CCCN2CCN(C)CC2)c(=O)c2cc([N+](=O)[O-])ccc12", "values": [{"measurement": "GI50", "setting": "786-0 renal", "value": 1.64, "unit": "µM"}, {"measurement": "TGI", "setting": "786-0 renal", "value": 3.13, "unit": "µM"}, {"measurement": "GI50", "setting": "A549 NSCLC", "value": 0.128, "unit": "µM"}, {"measurement": "TGI", "setting": "A549 NSCLC", "value": 0.337, "unit": "µM"}, {"measurement": "GI50", "setting": "COLO 205 colon", "value": 1.64, "unit": "µM"}, {"measurement": "TGI", "setting": "COLO 205 colon", "value": 3.38, "unit": "µM"}, {"measurement": "GI50", "setting": "HL-60(TB) leukemia", "value": 0.168, "unit": "µM"}, {"measurement": "TGI", "setting": "HL-60(TB) leukemia", "value": 0.372, "unit": "µM"}, {"measurement": "GI50", "setting": "HOP-62 NSCLC", "value": 0.0813, "unit": "µM"}, {"measurement": "TGI", "setting": "HOP-62 NSCLC", "value": 0.392, "unit": "µM"}, {"measurement": "GI50", "setting": "IGROV1 ovarian", "value": 0.351, "unit": "µM"}, {"measurement": "TGI", "setting": "IGROV1 ovarian", "value": 2.26, "unit": "µM"}, {"measurement": "GI50", "setting": "M14 melanoma", "value": 0.131, "unit": "µM"}, {"measurement": "TGI", "setting": "M14 melanoma", "value": 0.37, "unit": "µM"}, {"measurement": "GI50", "setting": "OVCAR-5 ovarian", "value": 22.1, "unit": "µM"}, {"measurement": "TGI", "setting": "OVCAR-5 ovarian", "value": 46.5, "unit": "µM"}, {"measurement": "GI50", "setting": "RXF 393 renal", "value": 11.4, "unit": "µM"}, {"measurement": "TGI", "setting": "RXF 393 renal", "value": 30.4, "unit": "µM"}]}, {"smiles": "CC(C)(Oc1ccc(/C=C/C(=O)c2ccc(Cl)cc2)cc1)C(=O)Nc1c(Cl)cccc1Cl", "values": [{"measurement": "TGI", "setting": "786-0 renal", "value": 45.8, "unit": "µM"}, {"measurement": "TGI", "setting": "A549 NSCLC", "value": "> 100", "unit": "µM"}, {"measurement": "TGI", "setting": "COLO 205 colon", "value": 40.2, "unit": "µM"}, {"measurement": "TGI", "setting": "HOP-62 NSCLC", "value": "> 100", "unit": "µM"}, {"measurement": "TGI", "setting": "IGROV1 ovarian", "value": 76.3, "unit": "µM"}, {"measurement": "TGI", "setting": "M14 melanoma", "value": 36.7, "unit": "µM"}, {"measurement": "TGI", "setting": "OVCAR-5 ovarian", "value": "> 100", "unit": "µM"}, {"measurement": "TGI", "setting": "RXF 393 renal", "value": 36.9, "unit": "µM"}, {"measurement": "TGI", "setting": "UO-31 renal", "value": 54.2, "unit": "µM"}]}, {"smiles": "Nc1ncnc2c1ncn2CC(O)CO", "note": "(stereo not given)", "values": [{"measurement": "TGI", "setting": "786-0 renal", "value": "> 100", "unit": "µM"}, {"measurement": "TGI", "setting": "A549 NSCLC", "value": "> 100", "unit": "µM"}, {"measurement": "TGI", "setting": "COLO 205 colon", "value": "> 100", "unit": "µM"}, {"measurement": "TGI", "setting": "HL-60(TB) leukemia", "value": "> 100", "unit": "µM"}, {"measurement": "TGI", "setting": "IGROV1 ovarian", "value": "> 100", "unit": "µM"}, {"measurement": "TGI", "setting": "M14 melanoma", "value": "> 100", "unit": "µM"}, {"measurement": "TGI", "setting": "RXF 393 renal", "value": "> 100", "unit": "µM"}, {"measurement": "TGI", "setting": "UO-31 renal", "value": "> 100", "unit": "µM"}]}, {"smiles": "CCOC(=O)C(NC(=O)c1nc[nH]c1[N+](=O)[O-])C(C)C", "note": "(stereo not given)", "values": [{"measurement": "TGI", "setting": "786-0 renal", "value": "> 100", "unit": "µM"}, {"measurement": "TGI", "setting": "A549 NSCLC", "value": "> 100", "unit": "µM"}, {"measurement": "TGI", "setting": "COLO 205 colon", "value": "> 100", "unit": "µM"}, {"measurement": "TGI", "setting": "HL-60(TB) leukemia", "value": "> 100", "unit": "µM"}, {"measurement": "TGI", "setting": "HOP-62 NSCLC", "value": "> 100", "unit": "µM"}, {"measurement": "TGI", "setting": "IGROV1 ovarian", "value": "> 100", "unit": "µM"}, {"measurement": "TGI", "setting": "M14 melanoma", "value": "> 100", "unit": "µM"}, {"measurement": "TGI", "setting": "UO-31 renal", "value": "> 100", "unit": "µM"}]}]}
